Results reported in EP4434982A1, “(S)-2-(2-METHYLAZETIDIN-1-YL)PYRIMIDINE DERIVATIVE AND PHARMACEUTICAL COMPOSITION COMPRISING SAME” (LG Chem, Ltd., priority 2021, dated 2023).

Biological target: T1, Ketohexokinase (KHK) (Homo sapiens, UniProt P50053)
T1 construct: His tag; made in house; host or cells: E. coli
T1 sequence (P50053 1-298): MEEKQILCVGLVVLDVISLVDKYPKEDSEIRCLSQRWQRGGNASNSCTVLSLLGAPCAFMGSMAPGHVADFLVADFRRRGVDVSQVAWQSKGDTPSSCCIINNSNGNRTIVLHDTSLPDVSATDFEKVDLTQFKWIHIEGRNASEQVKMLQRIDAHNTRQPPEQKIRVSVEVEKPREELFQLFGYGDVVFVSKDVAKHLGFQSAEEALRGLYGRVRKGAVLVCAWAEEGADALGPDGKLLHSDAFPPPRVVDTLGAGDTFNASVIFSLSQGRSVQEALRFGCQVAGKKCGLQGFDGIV
Experiment: measurement of activity in vitro of ketohexokinase inhibitor (Transcreener ADP2 TR-FRET Red Assay, ADP produced)
Assay type: biochemical
Conditions: KHK pre-reacted with inhibitor 30 minutes, then substrate (ATP, fructose) 15 minutes; Ki by Morrison equation
Protocol: Ketohexokinase (KHK) was expressed in E. Coli and purified using His tag. In order to measure the activity of the purified KHK, Transcreener ADP2 TR-FRET Red Assay kit of BellBrook Labs was used. A method of measuring the amount of ADP produced was used using TR-FRET after reacting a solution including a suitable concentration of KHK protein and ATP, and fructose for 15 minutes. In order to see the activity of a ketohexokinase (KHK) inhibitor, ketohexokinase (KHK) and a suitable concentration of an inhibitor were reacted first for 30 minutes, and then, reacted with a solution including the substrate of ketohexokinase (KHK) for 15 minutes. Then, reaction for TR-FRET was performed for 1 hour, and fluorescence was measured using Envision equipment of PerkinElmer. According to the optimization procedure of TR-FRET published by BellBrook Lab, the set value of the Envision equipment was determined.
The result values by concentration of the ketohexokinase (KHK) inhibitor were determined as the ratio of a wavelength of 665 nm and a wavelength of 615nm. The 665/615 ratio value by concentration of each inhibitor was converted to ADP concentration based on ADP standard curve, and inhibition activity Ki value was obtained using Morrison equation by statistical software (Prizm). Meanwhile, the Ki value is a value representing the binding affinity of the inhibitor and an enzyme, and a lower value means better inhibitory activity.

SMILES	Ki
C[C@H]1CCN1c1nc(N2CC[C@H](CC(=O)N3CCNCC3)C2)c2c(n1)C(F)(F)CC2 [Example 9]	≤ 10 nM
C[C@H]1CCN1c1nc(-c2cc(F)c(OCC(=O)N3CCNCC3)c(F)c2)c2c(n1)C(F)(F)CC2 [Example 34]	≤ 10 nM
C[C@H]1CCN1c1nc(N2CC[C@H](OCC(=O)N3CCNCC3)C2)cc(C(F)(F)F)n1 [Example 6, 2-(((S)-1-(2-((S)-2-methylazetidin-1-yl)-6-(trifluoromethyl)pyrimidin-4-yl)pyrrolidin-3-yl)oxy)-1-(piperazin-1-yl)ethan-1-one]	100 to 1000 nM
C[C@H]1CCN1c1nc(-c2ccc(OCC(=O)N3CCNCC3)c(Cl)c2)c2c(n1)C(F)(F)CC2 [Example 35]	≤ 10 nM
C[C@H]1CCN1c1nc(-c2ccc(CC(=O)N3CCNCC3)cc2)c2c(n1)C(F)(F)CC2 [Example 30, (S)-2-(4-(7,7-difluoro-2-(2-methylazetidin-1-yl)-6,7-dihydro-5H-cyclopenta[d]pyrimidin-4-yl)phenyl)-1-(piperazin-1-yl)ethan-1-one]	≤ 10 nM
C[C@H]1CCN1c1nc(-c2ccc(OCC(=O)N3CCCNCC3)c(Cl)c2)c2c(n1)C(F)(F)CC2 [Example 36, (S)-2-(2-(chloro-4-(7,7-difluoro-2-(2-methylazetidin-1-yl)-6,7-dihydro-5H-cyclopenta[d]pyrimidin-4-yl)phenoxy)-1-(1,4-diazepan-1-yl)ethan-1-one)]	≤ 10 nM
C[C@H]1CCN1c1nc(-c2ccc(OCC(=O)N3CCNCC3)nc2)cc(C(F)(F)F)n1 [Example 39, (S)-2-((5-(2-(2-methylazetidin-1-yl)-6-(trifluoromethyl)pyrimidin-4-yl)pyridin-2-yl)oxy)-1-(piperazin-1-yl)ethan-1-one]	≤ 10 nM
C[C@H]1CCN1c1nc(N2CCC(OCC(=O)N3CCNCC3)CC2)cc(C(F)(F)F)n1 [Example 27]	10 to 100 nM
C[C@H]1CCN1c1nc(-c2cnc(OCC(=O)N3CCNCC3)c(Cl)c2)c2c(n1)C(F)(F)CC2 [Example 38]	≤ 10 nM
C[C@H]1CCN1c1nc(-c2ccc(OCC(=O)N3CCNCC3)c(F)c2)c2c(n1)C(F)(F)CC2 [Example 33]	10 to 100 nM
C[C@H]1CCN1c1nc(N2C[C@@H]3[C@H](C2)[C@H]3CS(=O)(=O)N2CCNCC2)c2c(n1)C(F)(F)CC2 [Example 25, 7,7-difluoro-2-((S)-2-methylazetidin-1-yl)-4-((1R,5S,6S)-6-((piperazin-1-ylsulfonyl)methyl)-3-azabicyclo[3.1.0]hexan-3-yl)-6,7-dihydro-5H-cyclopenta[d]pyrimidine]	≤ 10 nM
C[C@H]1CCN1c1nc(-c2ccc(OCC(=O)N3CCNCC3)nc2)c2c(n1)C(F)(F)CC2 [Example 37]	≤ 10 nM
C[C@H]1CCN1c1nc(N2C[C@@H](OCC(=O)N3CCNCC3)[C@@H]2C)c2c(n1)C(F)(F)CC2 [Example 5, 2-(((2S,3R)-1-(7,7-difluoro-2-((S)-2-methylazetidin-1-yl)-6,7-dihydro-5H-cyclopenta[d]pyrimidin-4-yl)-2-methylazetidin-3-yl)oxy)-1-(piperazin-1-yl)ethan-1-one]	10 to 100 nM
C[C@H]1CCN1c1nc(N2CCN(CC(=O)N3CCOCC3)CC2)c2c(n1)C(F)(F)CC2 [Example 14, (S)-2-4-(7,7-difluoro-2-(2-methylazetidin-1-yl)-6,7-dihydro-5H-cyclopenta[d]pyrimidin-1-yl)-1-(piperazin-1-yl)morpholinoethan-1-one]	10 to 100 nM
C[C@H]1CCN1c1nc(N2CC[C@@H](OCC(=O)N3CCNCC3)C2)c2c(n1)C(F)(F)CC2 [Example 8, 2-(((R)-1-(7,7-difluoro-2-((S)-2-methylazetidin-1-yl)-6,7-dihydro-5H-cyclopenta[d]pyrimidin-4-yl)pyrrolidin-3-yl)oxy)-1-(piperazin-1-yl)ethan-1-one]	≤ 10 nM
C[C@H]1CCN1c1nc(-c2ccc(OCC(=O)N3CCNCC3)cc2)c2c(n1)C(F)(F)CC2 [Example 32]	10 to 100 nM
